These results are taken from US7217682B2, “Cyclopropanecarboxylic acid esters and pest controllers containing the same” (Sumitomo Chemical Company, Limited, priority 2001, dated 2007).

This assay deals with Adult houseflies. As to the kind of experiment: Knock-down test on adult houseflies, oil solution sprayed into a cubic chamber. In kind it is in vivo. The following applies: 0.7 ml of 0.025% oil solution sprayed in 70 cm cubic chamber; 5 male and 5 female adult houseflies; counted for 10 minutes; average of two repeats. An excerpt: A solution of 0.025 part of Present Compound 1 to 6 dissolved with 10 parts of dichloromethane was mixed with […] parts of deodorized kerosene to give a 0.025% oil solution.
Adult houseflies (5 males and 5 females) were left in a cubic chamber (70 cm at side). Seven-tenths (0.7) ml of the 0.025% oil solution of Present Compound 1 to 6 prepared above was sprayed with a spray gun at a pressure of 8.8×10^4 Pa from a small window on the side of the chamber. Then, the number of the knocked-down insects was counted at times for 10 minutes. The time for knocking down half of the tested insects (KT50) was calculated from the result.
Furthermore, the test was similarly done by using (4-methoxymethyl-2,3,5,6-tetrafluoro)phenylmethyl [1R[1α, 3β(Z)]]-2,2-dimethyl-3-(2-fluoro-3-methoxy-3-oxopropenyl)cyclopropanecarboxylate (hereinafter, referred to as Comparative Compound):
[drawing 12] described in GB patent publication 2,268,740 as a comparative compound. The tests were done twice repeat, and the KT50 values were calculated from the averages.

Where only a bound is given, the exact number is not on record here.

Regarding `COCc1c(F)c(F)c(COC(=O)C2C(/C=C(\F)C(=O)OC)C2(C)C)c(F)c1F` (stereo not drawn) [Comparative Compound, (4-methoxymethyl-2,3,5,6-tetrafluoro)phenylmethyl [1R[1α, 3β(Z)]]-2,2-dimethyl-3-(2-fluoro-3-methoxy-3-oxopropenyl)cyclopropanecarboxylate, reference compound], the “KT50 (time for knocking down half of the tested insects)” value (from here on “KT50”) was greater than 10 min. For `CCOC(=O)/C(C#N)=C/C1C(C(=O)OCc2c(F)c(F)c(COC)c(F)c2F)C1(C)C` (stereo not shown) [Present Compound 1, 4-methoxymethyl-2,3,5,6-tetrafluorobenzyl 2,2-dimethyl-3-((E)-2-cyano-3-ethoxy-3-oxo-1-propenyl) cyclopropanecarboxylate], the “KT50” value is 1.5 min.

Consider `COCc1c(F)c(F)c(COC(=O)C2C(/C=C(\C#N)C(=O)OC)C2(C)C)c(F)c1F` (stereo not shown) [Present Compound 2, 4-methoxymethyl-2,3,5,6-tetrafluorobenzyl 2,2-dimethyl-3-((E)-2-cyano-3-methoxy-3-oxo-1-propenyl) cyclopropanecarboxylate], for which the “KT50” value was 1.9 min. On to `CCCOC(=O)/C(C#N)=C/C1C(C(=O)OCc2c(F)c(F)c(COC)c(F)c2F)C1(C)C` (stereo not shown) [Present Compound 3, 4-methoxymethyl-2,3,5,6-tetrafluorobenzyl 2,2-dimethyl-3-((E)-2-cyano-3-propoxy-3-oxo-1-propenyl) cyclopropanecarboxylate], for which the “KT50” value came to 4.1 min. With `C=CCOC(=O)/C(C#N)=C/C1C(C(=O)OCc2c(F)c(F)c(COC)c(F)c2F)C1(C)C` (stereo not shown) [Present Compound 4, 4-methoxymethyl-2,3,5,6-tetrafluorobenzyl 2,2-dimethyl-3-((E)-2-cyano-3-allyloxy-3-oxo-1-propenyl) cyclopropanecarboxylate], the “KT50” value amounted to 4.3 min. For `COCc1c(F)c(F)c(COC(=O)C2C(/C=C(\C#N)C(=O)OC(C)C)C2(C)C)c(F)c1F` (stereo not shown) [Present Compound 5, 4-methoxymethyl-2,3,5,6-tetrafluorobenzyl 2,2-dimethyl-3-((E)-2-cyano-3-isopropoxy-3-oxo-1-propenyl) cyclopropanecarboxylate] the value was 1.5 min; for `COCc1c(F)c(F)c(COC(=O)C2C(/C=C(\C#N)C(=O)OC(C)(C)C)C2(C)C)c(F)c1F` (stereo not shown) [Present Compound 6, 4-methoxymethyl-2,3,5,6-tetrafluorobenzyl 2,2-dimethyl-3-((E)-2-cyano-3-t-butyloxy-3-oxo-1-propenyl) cyclopropanecarboxylate], 3.4 min.
